According to patent publication US20100137449A1, “SUBSTITUTED 1,3-CYCLOPENTADIONE MULTI-TARGET PROTEIN KINASE MODULATORS OF CANCER, ANGIOGENESIS AND THE INFLAMMATORY PATHWAYS ASSOCIATED THEREWITH” (METAPROTEOMICS, LLC, priority 2007, published 2010):

Experiments:
Assay in all cases: KinaseProfiler Assay
CLK2(h) = CLK2(h) (Homo sapiens, UniProt P49760)
cSRC(h) = cSRC(h) (Homo sapiens, UniProt P12931)
DAPK2(h) = DAPK2(h) (Homo sapiens, UniProt Q9UIK4)
JAK3(h) = biological target: T1, JAK3(h) (Homo sapiens, UniProt P52333)
T1 sequence (P52333 1-1124): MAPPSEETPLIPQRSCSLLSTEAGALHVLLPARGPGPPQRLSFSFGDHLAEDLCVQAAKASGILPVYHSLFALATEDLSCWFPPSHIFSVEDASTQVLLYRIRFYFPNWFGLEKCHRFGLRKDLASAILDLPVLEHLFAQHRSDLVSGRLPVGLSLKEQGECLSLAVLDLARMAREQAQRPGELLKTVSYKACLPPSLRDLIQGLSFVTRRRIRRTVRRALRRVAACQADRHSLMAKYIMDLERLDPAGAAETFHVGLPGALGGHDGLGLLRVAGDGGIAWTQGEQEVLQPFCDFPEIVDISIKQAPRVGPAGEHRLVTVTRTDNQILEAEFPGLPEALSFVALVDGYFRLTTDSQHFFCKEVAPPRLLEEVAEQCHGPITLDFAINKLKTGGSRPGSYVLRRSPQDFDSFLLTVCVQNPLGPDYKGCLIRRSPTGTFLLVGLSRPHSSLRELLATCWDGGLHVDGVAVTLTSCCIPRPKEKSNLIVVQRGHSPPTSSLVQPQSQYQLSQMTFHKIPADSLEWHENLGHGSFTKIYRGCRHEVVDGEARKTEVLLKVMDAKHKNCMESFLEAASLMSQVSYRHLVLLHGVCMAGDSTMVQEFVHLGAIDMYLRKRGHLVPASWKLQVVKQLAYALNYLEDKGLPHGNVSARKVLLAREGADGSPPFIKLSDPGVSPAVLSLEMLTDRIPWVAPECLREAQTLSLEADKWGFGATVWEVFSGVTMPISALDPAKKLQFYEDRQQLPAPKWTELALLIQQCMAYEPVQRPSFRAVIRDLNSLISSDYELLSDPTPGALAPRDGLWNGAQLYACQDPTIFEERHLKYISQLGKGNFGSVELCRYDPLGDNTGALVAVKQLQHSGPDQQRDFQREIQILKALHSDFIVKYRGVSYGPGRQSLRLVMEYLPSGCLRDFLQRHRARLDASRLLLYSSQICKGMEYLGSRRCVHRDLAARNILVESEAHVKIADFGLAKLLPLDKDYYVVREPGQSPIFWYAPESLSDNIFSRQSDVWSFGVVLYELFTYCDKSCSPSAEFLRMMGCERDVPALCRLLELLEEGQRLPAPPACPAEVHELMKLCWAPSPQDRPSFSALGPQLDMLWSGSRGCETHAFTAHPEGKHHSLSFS

JNK3(h) = JNK3(h) (Homo sapiens, UniProt P53779)
PDGFRα(D842V)(h) = PDGFRα(D842V)(h) (Homo sapiens, UniProt P16234, D842V)
PKBα(h) = PKBα(h) (Homo sapiens, UniProt P31749)
PKCγ(h) = PKCγ(h) (Homo sapiens, UniProt P05129)
SRPK2(h) = SRPK2(h) (Homo sapiens, UniProt P78362)
TSSK1(h) = biological target: T2, TSSK1(h) (Homo sapiens, UniProt Q9BXA7)
T2 sequence (Q9BXA7 1-367): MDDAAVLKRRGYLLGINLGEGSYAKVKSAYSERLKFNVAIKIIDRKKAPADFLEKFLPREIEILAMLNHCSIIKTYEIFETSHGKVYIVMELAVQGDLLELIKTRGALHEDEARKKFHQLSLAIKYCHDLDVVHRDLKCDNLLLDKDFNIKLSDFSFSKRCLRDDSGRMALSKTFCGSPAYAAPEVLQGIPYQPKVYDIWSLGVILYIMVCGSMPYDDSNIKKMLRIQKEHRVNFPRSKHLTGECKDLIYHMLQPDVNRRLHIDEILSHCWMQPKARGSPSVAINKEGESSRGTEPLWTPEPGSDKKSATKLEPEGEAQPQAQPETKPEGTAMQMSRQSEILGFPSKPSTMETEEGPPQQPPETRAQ

Sequence of DAPK2(h) (Q9UIK4 whole entry): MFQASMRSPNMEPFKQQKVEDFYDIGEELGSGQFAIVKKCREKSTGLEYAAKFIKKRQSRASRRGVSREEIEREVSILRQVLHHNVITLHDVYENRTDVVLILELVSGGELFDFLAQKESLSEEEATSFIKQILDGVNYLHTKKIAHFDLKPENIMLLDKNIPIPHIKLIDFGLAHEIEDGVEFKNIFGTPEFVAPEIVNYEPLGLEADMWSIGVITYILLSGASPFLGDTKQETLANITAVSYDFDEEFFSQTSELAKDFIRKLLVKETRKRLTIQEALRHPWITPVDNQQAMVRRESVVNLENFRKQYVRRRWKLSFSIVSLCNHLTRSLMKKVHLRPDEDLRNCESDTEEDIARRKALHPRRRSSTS
Sequence of PKBα(h) (P31749 whole entry): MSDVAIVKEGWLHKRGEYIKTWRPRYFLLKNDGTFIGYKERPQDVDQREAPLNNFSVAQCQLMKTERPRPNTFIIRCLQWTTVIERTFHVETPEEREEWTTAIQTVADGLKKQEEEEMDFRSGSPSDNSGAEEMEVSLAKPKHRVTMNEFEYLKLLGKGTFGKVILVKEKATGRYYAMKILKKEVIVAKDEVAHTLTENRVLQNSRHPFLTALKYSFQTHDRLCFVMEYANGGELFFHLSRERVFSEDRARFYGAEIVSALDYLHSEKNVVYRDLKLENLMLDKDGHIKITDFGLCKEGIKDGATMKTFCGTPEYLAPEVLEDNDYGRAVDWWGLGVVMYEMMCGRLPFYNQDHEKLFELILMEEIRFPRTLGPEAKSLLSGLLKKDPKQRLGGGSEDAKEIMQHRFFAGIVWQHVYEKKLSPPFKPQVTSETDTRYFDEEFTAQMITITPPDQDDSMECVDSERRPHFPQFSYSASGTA
Sequence of cSRC(h) (P12931 whole entry): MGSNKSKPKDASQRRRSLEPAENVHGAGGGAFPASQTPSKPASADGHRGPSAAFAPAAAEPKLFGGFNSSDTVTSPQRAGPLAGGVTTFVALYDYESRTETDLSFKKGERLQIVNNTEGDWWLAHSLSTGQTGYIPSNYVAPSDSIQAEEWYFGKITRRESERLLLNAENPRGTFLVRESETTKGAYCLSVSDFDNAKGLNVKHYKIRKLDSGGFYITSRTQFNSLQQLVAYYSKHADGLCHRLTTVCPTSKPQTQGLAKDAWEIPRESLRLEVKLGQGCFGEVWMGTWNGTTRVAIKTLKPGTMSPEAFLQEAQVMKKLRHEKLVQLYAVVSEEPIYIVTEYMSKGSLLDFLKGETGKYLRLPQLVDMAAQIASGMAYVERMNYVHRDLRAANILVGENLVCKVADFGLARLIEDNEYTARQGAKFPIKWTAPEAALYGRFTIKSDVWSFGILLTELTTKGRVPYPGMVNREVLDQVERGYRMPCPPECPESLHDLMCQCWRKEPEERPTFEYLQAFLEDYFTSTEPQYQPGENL
Sequence of CLK2(h) (P49760 whole entry): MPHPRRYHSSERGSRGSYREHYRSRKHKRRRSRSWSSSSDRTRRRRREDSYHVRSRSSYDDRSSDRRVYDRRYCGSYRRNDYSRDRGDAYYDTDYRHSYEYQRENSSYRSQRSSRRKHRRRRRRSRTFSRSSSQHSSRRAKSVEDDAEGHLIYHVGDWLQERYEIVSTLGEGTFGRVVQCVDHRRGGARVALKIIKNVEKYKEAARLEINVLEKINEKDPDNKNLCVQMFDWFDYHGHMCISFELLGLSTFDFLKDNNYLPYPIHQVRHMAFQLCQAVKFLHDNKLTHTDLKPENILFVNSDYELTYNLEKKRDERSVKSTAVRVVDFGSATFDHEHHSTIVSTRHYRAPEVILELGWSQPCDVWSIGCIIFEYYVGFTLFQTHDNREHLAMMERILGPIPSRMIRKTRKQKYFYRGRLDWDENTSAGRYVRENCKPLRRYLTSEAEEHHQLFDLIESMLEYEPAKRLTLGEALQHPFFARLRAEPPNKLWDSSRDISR
Sequence of PDGFRα(D842V)(h) (P16234 24-1089 D842V): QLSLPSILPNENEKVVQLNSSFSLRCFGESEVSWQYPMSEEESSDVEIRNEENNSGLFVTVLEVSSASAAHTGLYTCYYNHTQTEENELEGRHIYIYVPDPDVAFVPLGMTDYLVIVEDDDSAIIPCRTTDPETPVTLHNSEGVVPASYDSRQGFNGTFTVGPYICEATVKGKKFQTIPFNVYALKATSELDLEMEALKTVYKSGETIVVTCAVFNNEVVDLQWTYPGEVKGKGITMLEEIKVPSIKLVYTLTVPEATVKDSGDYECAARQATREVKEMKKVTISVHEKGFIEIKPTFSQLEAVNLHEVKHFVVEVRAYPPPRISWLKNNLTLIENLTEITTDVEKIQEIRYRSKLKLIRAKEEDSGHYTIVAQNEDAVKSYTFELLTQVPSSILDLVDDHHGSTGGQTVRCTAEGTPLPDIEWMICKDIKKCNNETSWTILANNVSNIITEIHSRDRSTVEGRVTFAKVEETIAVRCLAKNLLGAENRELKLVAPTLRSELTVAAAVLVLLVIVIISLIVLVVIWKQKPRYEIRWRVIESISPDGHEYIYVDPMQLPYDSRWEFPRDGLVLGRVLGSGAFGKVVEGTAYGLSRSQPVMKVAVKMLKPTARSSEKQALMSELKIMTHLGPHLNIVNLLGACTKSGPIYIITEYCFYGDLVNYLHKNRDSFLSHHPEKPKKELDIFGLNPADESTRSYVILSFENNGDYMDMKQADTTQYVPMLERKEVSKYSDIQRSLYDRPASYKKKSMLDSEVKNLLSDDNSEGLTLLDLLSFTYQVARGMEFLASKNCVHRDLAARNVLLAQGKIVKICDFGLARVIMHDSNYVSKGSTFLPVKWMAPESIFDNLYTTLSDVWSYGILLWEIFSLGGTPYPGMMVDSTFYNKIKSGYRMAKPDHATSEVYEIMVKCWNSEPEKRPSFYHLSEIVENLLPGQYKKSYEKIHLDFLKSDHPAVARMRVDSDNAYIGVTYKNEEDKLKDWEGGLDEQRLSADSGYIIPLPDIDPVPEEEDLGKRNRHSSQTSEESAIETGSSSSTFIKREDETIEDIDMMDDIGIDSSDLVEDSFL
Sequence of JNK3(h) (P53779 whole entry): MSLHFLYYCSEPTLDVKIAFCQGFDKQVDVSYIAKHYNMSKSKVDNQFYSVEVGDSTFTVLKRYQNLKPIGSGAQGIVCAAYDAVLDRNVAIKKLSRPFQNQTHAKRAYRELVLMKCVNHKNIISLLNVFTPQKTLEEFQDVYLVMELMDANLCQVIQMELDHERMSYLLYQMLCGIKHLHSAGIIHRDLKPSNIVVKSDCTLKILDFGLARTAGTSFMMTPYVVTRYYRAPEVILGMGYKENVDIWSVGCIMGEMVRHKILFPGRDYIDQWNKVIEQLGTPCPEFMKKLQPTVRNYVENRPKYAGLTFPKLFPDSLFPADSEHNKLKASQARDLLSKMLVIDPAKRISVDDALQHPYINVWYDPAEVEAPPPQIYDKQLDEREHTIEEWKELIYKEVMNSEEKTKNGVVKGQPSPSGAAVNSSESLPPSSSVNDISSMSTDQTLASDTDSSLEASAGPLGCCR
Sequence of SRPK2(h) (P78362 whole entry): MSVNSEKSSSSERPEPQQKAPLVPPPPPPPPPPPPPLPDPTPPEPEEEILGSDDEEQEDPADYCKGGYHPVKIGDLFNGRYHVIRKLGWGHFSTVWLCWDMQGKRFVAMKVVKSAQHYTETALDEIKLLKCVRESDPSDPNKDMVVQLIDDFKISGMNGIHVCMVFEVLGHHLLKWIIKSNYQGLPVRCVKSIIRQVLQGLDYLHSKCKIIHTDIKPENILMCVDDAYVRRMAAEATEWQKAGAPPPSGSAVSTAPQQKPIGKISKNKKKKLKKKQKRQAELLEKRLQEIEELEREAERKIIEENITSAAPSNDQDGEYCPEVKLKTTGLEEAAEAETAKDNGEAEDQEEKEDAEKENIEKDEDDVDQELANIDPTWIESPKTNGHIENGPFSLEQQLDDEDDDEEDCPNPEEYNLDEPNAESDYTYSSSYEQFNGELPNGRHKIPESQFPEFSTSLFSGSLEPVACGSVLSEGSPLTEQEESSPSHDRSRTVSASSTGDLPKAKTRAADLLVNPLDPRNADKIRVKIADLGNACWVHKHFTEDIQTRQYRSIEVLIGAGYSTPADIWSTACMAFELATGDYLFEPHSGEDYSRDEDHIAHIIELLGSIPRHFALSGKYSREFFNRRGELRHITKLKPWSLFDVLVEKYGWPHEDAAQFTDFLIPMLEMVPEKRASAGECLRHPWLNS

Q: With `CC(C)CCC(=O)[C@]1(O)C(O)=C(C(=O)C(C)C)C(=O)[C@H]1CCC(C)C` [TH2, tetrahydroiso-cohumulone] as the compound, how does the kinase inhibition (CLK2(h); 1 μg/ml) read?
A: 103% of control

Q: And the kinase inhibition (CLK2(h); 5 μg/ml)?
A: 100% of control

Q: What about the kinase inhibition (CLK2(h); 25 μg/ml) of the same compound?
A: 110% of control

Q: What about the kinase inhibition (CLK2(h); 50 μg/ml) of the same compound?
A: 101% of control

Q: And the kinase inhibition (CLK2(h); 100 μg/ml)?
A: 96% of control

Q: And the kinase inhibition (cSRC(h); 1 μg/ml)?
A: 114% of control

Q: And the kinase inhibition (cSRC(h); 5 μg/ml)?
A: 114% of control

Q: What about the kinase inhibition (cSRC(h); 25 μg/ml) of the same compound?
A: 108% of control

Q: What about the kinase inhibition (cSRC(h); 50 μg/ml) of the same compound?
A: 101% of control

Q: What about the kinase inhibition (cSRC(h); 100 μg/ml) of the same compound?
A: 87% of control

Q: What about the kinase inhibition (DAPK2(h); 1 μg/ml) of the same compound?
A: 61% of control

Q: And the kinase inhibition (DAPK2(h); 5 μg/ml)?
A: 56% of control

Q: And the kinase inhibition (DAPK2(h); 25 μg/ml)?
A: 55% of control

Q: And the kinase inhibition (DAPK2(h); 50 μg/ml)?
A: 52% of control

Q: What about the kinase inhibition (DAPK2(h); 100 μg/ml) of the same compound?
A: 49% of control

Q: What about the kinase inhibition (JAK3(h); 1 μg/ml) of the same compound?
A: 74% of control

Q: And the kinase inhibition (JAK3(h); 5 μg/ml)?
A: 67% of control

Q: And the kinase inhibition (JAK3(h); 25 μg/ml)?
A: 62% of control

Q: And the kinase inhibition (JAK3(h); 50 μg/ml)?
A: 53% of control

Q: What about the kinase inhibition (JAK3(h); 100 μg/ml) of the same compound?
A: 35% of control

Q: And the kinase inhibition (JNK3(h); 1 μg/ml)?
A: 110% of control

Q: And the kinase inhibition (JNK3(h); 5 μg/ml)?
A: 108% of control

Q: And the kinase inhibition (JNK3(h); 25 μg/ml)?
A: 80% of control

Q: What about the kinase inhibition (JNK3(h); 50 μg/ml) of the same compound?
A: 92% of control

Q: And the kinase inhibition (JNK3(h); 100 μg/ml)?
A: 88% of control

Q: What about the kinase inhibition (PDGFRα(D842V)(h); 1 μg/ml) of the same compound?
A: 113% of control

Q: What about the kinase inhibition (PDGFRα(D842V)(h); 5 μg/ml) of the same compound?
A: 124% of control

Q: And the kinase inhibition (PDGFRα(D842V)(h); 25 μg/ml)?
A: 128% of control

Q: And the kinase inhibition (PDGFRα(D842V)(h); 50 μg/ml)?
A: 129% of control

Q: And the kinase inhibition (PDGFRα(D842V)(h); 100 μg/ml)?
A: 127% of control

Q: And the kinase inhibition (PKBα(h); 1 μg/ml)?
A: 123% of control

Q: And the kinase inhibition (PKBα(h); 5 μg/ml)?
A: 130% of control

Q: And the kinase inhibition (PKBα(h); 25 μg/ml)?
A: 126% of control

Q: And the kinase inhibition (PKBα(h); 50 μg/ml)?
A: 118% of control

Q: What about the kinase inhibition (PKBα(h); 100 μg/ml) of the same compound?
A: 79% of control

Q: And the kinase inhibition (PKCγ(h); 1 μg/ml)?
A: 102% of control

Q: What about the kinase inhibition (PKCγ(h); 5 μg/ml) of the same compound?
A: 107% of control

Q: What about the kinase inhibition (PKCγ(h); 25 μg/ml) of the same compound?
A: 101% of control

Q: And the kinase inhibition (PKCγ(h); 50 μg/ml)?
A: 91% of control

Q: What about the kinase inhibition (PKCγ(h); 100 μg/ml) of the same compound?
A: 99% of control

Q: And the kinase inhibition (SRPK2(h); 1 μg/ml)?
A: 105% of control

Q: And the kinase inhibition (SRPK2(h); 5 μg/ml)?
A: 104% of control

Q: What about the kinase inhibition (SRPK2(h); 25 μg/ml) of the same compound?
A: 99% of control

Q: And the kinase inhibition (SRPK2(h); 50 μg/ml)?
A: 91% of control

Q: What about the kinase inhibition (SRPK2(h); 100 μg/ml) of the same compound?
A: 88% of control

Q: And the kinase inhibition (TSSK1(h); 1 μg/ml)?
A: 105% of control

Q: And the kinase inhibition (TSSK1(h); 5 μg/ml)?
A: 97% of control

Q: What about the kinase inhibition (TSSK1(h); 25 μg/ml) of the same compound?
A: 96% of control

Q: And the kinase inhibition (TSSK1(h); 50 μg/ml)?
A: 91% of control

Q: And the kinase inhibition (TSSK1(h); 100 μg/ml)?
A: 86% of control
